US20250340538A1, “IMIDAZOLONE DERIVATIVES AS INHIBITORS OF PROTEIN KINASES IN PARTICULAR DYRK1A, CLK1 AND/OR CLK4” (PERHA PHARMACEUTICALS, priority 2021, published 2025)
Several values for one entry are separate records, joined by “and”; a condition that tells them apart may be missing. Equal values may be shown once. Read-outs that look alike come from different tables or passages of the source.

Legend:
Assay type in all cases: biochemical
[1] = biological target: T1, DYRK1B (Homo sapiens, UniProt Q9Y463); assay: Radiometric protein kinase assay (33PanQinase Activity Assay), DYRK1B; conditions: read-out: IC50 on DYRK1B (most potent DYRK1B inhibitors)
T1 construct: GST-fusion or His-tag (not specified per kinase); purchased ProQinase GmbH; host or cells: Sf9 insect cells or E. coli (not specified per kinase)
Protocol: (§1) Assays were performed by ProQinase GmbH (Engesserstr. 4, D-79108 Freiburg, Germany. www.proqinase.com). The IC50 profile of all compounds was determined using 12 protein kinases (CDK2/cyclin E, CK1ε, CLK1, 2, 3, 4, DYRK1A, 1B, 2, 3, 4, GSK3β).
(§2) The compounds were provided as […] in 100% DMSO. Prior to testing, the 1 μM stock solutions were subjected to a serial, semi-logarithmic dilution using 100% DMSO as a solvent. […] In the process, 90 μl H2O were added to each well of each compound dilution plate. To minimize potential precipitation, the H2O was added to each plate only a few minutes before the transfer of the compound solutions into the assay plates. The plate was shaken thoroughly, resulting in a compound dilution plate/10% DMSO.
(§3) For the assays (see below), 5 μL solution from each well of the compound dilution plates/10% DMSO were transferred into the assay plates. The final volume of the assay was 50 μL. All compounds were tested at 10 final assay concentrations in the range from 10 μM to 30 nM. The final DMSO concentration in the reaction cocktails was 1% in all cases.
(§4) All protein kinases provided by ProQinase were expressed in Sf9 insect cells or in E. coli as recombinant GST-fusion proteins or His-tagged proteins, either as full-length or enzymatically active fragments. All kinases were produced from human cDNAs and purified by either GSH-affinity chromatography or immobilized metal. Affinity tags were removed from a number of kinases during purification. The purity of the protein kinases was examined by SDS-PAGE/Coomassie staining, the identity was checked by mass spectroscopy.
(§5) A radiometric protein kinase assay (33PanQinase® Activity Assay) was used for measuring the kinase activity of the 12 protein kinases. All kinase assays were performed in 96-well FlashPlates™ from PerkinElmer (Boston, MA, USA) in a 50 μL reaction volume. The reaction cocktail was pipetted in four steps in the following order: • 25 μL of assay buffer (standard buffer/[γ-^33P]-ATP), • 10 μL of ATP solution (in H2O), • 5 μL of test compound (in 10% DMSO), • 10 μL of enzyme/substrate mixture.
(§6) The reaction cocktails were incubated at 30° C. for 60 minutes. The reaction was stopped with 50 μL of 2% (v/v) H3PO4, plates were aspirated and washed two times with 200 μL 0.9% (w/v) NaCl. Incorporation of ^33Pi was determined with a microplate scintillation counter (Microbeta, Wallac). The IC50 values for all compounds were calculated from the dose response curves
(§7) As a parameter for assay quality, the Z′-factor (Zhang et al., J. Biomol. Screen. 2: 67-73, 1999) for the low and high controls of each assay plate (n=8) was used. ProQinase's criterion for repetition of an assay plate is a Z′-factor below 0.4 (Iversen et al., J. Biomol. Screen. 3: 247-252, 2006).

[2] = biological target: T2, DYRK1A (Homo sapiens, UniProt Q13627); assay: Radiometric protein kinase assay (33PanQinase Activity Assay), DYRK1A; conditions: for Selectivity Class DYRK1A vs. CLK1: ratio of IC50 on CLK1 over IC50 on DYRK1A; for Selectivity Class DYRK1A vs. DYRK1B: ratio of IC50 on DYRK1B over IC50 on DYRK1A
T2 construct: GST-fusion or His-tag (not specified per kinase); purchased ProQinase GmbH; host or cells: Sf9 insect cells or E. coli (not specified per kinase)
Procedure, shortened: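 Recombinant human kinase, expressed in Sf9 or E. coli, in a radiometric [γ-33P]-ATP assay at 30 °C for 60 min. Compounds tested at 10 concentrations from 10 μM to 30 nM, 1% DMSO final. 33Pi incorporation measured by scintillation counting; IC50 from dose-response curves.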

[3] = biological target: T3, DYRK2 (Homo sapiens, UniProt Q92630); assay: Radiometric protein kinase assay (33PanQinase Activity Assay), DYRK2; conditions: read-out: IC50 on DYRK2 (most potent DYRK2 inhibitors)
T3 construct: GST-fusion or His-tag (not specified per kinase); purchased ProQinase GmbH; host or cells: Sf9 insect cells or E. coli (not specified per kinase)
T3 sequence (Q92630 1-601): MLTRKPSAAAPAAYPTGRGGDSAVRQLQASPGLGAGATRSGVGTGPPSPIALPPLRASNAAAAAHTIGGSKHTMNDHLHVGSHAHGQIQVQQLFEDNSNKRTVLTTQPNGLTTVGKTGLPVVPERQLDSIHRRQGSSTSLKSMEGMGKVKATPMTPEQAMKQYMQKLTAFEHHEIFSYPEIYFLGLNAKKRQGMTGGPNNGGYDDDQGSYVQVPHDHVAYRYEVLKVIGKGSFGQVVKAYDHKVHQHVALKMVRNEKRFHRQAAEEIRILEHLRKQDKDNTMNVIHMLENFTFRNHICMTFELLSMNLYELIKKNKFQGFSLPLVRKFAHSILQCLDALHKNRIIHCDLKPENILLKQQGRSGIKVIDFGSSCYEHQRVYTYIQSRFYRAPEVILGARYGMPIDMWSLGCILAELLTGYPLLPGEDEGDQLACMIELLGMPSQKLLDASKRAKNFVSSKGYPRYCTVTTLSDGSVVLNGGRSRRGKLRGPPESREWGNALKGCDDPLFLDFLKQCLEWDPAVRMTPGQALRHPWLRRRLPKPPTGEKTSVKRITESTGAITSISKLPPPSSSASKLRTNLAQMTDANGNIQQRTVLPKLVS
Protocol: as §1, §2, §3, §4, §5, §6, §7

[4] = biological target: T4, CLK2 (Homo sapiens, UniProt P49760); assay: Radiometric protein kinase assay (33PanQinase Activity Assay), CLK2; conditions: read-out: IC50 on CLK2 (most potent CLK2 inhibitors)
T4 construct: GST-fusion or His-tag (not specified per kinase); purchased ProQinase GmbH; host or cells: Sf9 insect cells or E. coli (not specified per kinase)
Protocol: as §1, §2, §3, §4, §5, §6, §7

[5] = biological target: T5, CLK1 (Homo sapiens, UniProt P49759); assay: Radiometric protein kinase assay (33PanQinase Activity Assay), CLK1
T5 construct: GST-fusion or His-tag (not specified per kinase); purchased ProQinase GmbH; host or cells: Sf9 insect cells or E. coli (not specified per kinase)
Procedure, shortened: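 33P incorporation counted by microplate scintillation after H3PO4 stop and NaCl washes; IC50 fitted from dose-response curves. Reactions of kinase/substrate, [γ-33P]-ATP and compound ran 60 min at 30 °C, 1% DMSO final, 10 concentrations (10 μM–30 nM).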

[6] = biological target: T6, CLK4 (Homo sapiens, UniProt Q9HAZ1); assay: Radiometric protein kinase assay (33PanQinase Activity Assay), CLK4; conditions: read-out: IC50 on CLK4 (most potent CLK4 inhibitors)
T6 construct: GST-fusion or His-tag (not specified per kinase); purchased ProQinase GmbH; host or cells: Sf9 insect cells or E. coli (not specified per kinase)
Protocol: as §1, §2, §3, §4, §5, §6, §7

[7] = biological target: T7, DYRK3 (Homo sapiens, UniProt O43781); assay: Radiometric protein kinase assay (33PanQinase Activity Assay), DYRK3; conditions: read-out: IC50 on DYRK3 (most potent DYRK3 inhibitors)
T7 construct: GST-fusion or His-tag (not specified per kinase); purchased ProQinase GmbH; host or cells: Sf9 insect cells or E. coli (not specified per kinase)
T7 sequence (O43781 1-588): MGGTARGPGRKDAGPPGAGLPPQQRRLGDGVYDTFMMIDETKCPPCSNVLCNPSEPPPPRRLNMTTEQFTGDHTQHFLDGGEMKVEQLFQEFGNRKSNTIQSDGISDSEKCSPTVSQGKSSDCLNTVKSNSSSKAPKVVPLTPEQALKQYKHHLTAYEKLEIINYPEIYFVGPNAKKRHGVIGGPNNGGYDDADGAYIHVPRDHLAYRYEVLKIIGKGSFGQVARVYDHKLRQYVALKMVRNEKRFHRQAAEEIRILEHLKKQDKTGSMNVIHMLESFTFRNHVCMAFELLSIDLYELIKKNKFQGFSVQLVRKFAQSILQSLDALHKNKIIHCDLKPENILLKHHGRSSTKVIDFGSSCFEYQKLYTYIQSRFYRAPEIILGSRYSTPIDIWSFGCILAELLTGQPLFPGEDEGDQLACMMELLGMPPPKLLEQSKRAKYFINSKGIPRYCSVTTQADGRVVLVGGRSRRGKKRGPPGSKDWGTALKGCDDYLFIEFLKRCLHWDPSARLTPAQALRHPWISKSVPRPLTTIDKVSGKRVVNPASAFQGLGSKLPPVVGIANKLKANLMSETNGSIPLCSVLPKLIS
Protocol: as §1, §2, §3, §4, §5, §6, §7

[8] = biological target: T8, CLK3 (Homo sapiens, UniProt P49761); assay: Radiometric protein kinase assay (33PanQinase Activity Assay), CLK3; conditions: read-out: IC50 on CLK3 (most potent CLK3 inhibitors)
T8 construct: GST-fusion or His-tag (not specified per kinase); purchased ProQinase GmbH; host or cells: Sf9 insect cells or E. coli (not specified per kinase)
Protocol: as §1, §2, §3, §4, §5, §6, §7

[9] = IC50 class A to E, read-out: Potency Class DYRK1A
[10] = class by IC50 on DYRK1A, from dose-response curves, read-out: Potency Class DYRK1A
[11] = read-out: IC50 on DYRK1A (most potent DYRK1A inhibitors)
[12] = IC50 class A to E, read-out: Potency Class CLK1
[13] = class by IC50 on CLK1, from dose-response curves, read-out: Potency Class CLK1

T4 sequence (P49760 whole entry, the tested form may be a part): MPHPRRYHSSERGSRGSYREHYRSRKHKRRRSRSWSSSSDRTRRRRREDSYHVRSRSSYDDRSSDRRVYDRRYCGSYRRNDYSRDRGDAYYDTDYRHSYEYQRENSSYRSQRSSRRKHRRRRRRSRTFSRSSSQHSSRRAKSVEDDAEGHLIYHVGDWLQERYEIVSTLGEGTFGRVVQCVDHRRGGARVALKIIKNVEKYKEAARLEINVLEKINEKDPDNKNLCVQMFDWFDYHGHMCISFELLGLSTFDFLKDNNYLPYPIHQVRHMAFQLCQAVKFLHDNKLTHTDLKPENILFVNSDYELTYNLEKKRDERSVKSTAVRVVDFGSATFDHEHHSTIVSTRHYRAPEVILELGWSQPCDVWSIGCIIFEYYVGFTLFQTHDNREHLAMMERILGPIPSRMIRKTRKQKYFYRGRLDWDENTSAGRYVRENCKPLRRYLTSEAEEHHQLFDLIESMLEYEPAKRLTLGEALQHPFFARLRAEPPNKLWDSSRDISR
T5 sequence (P49759 whole entry, the tested form may be a part): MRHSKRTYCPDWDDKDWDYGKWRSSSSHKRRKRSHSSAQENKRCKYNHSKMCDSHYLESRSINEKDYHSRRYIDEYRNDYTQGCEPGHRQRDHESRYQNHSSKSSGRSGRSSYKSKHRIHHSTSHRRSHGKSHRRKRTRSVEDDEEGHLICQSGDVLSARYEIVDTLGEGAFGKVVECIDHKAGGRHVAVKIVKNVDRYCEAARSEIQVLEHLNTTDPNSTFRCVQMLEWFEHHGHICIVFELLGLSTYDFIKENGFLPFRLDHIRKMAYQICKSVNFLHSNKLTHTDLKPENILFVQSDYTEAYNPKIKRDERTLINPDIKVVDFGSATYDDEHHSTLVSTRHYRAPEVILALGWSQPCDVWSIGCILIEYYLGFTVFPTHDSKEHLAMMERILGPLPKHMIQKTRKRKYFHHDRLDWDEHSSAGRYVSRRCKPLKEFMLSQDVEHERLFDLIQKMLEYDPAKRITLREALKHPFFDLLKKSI
T1 sequence (Q9Y463 whole entry, the tested form may be a part): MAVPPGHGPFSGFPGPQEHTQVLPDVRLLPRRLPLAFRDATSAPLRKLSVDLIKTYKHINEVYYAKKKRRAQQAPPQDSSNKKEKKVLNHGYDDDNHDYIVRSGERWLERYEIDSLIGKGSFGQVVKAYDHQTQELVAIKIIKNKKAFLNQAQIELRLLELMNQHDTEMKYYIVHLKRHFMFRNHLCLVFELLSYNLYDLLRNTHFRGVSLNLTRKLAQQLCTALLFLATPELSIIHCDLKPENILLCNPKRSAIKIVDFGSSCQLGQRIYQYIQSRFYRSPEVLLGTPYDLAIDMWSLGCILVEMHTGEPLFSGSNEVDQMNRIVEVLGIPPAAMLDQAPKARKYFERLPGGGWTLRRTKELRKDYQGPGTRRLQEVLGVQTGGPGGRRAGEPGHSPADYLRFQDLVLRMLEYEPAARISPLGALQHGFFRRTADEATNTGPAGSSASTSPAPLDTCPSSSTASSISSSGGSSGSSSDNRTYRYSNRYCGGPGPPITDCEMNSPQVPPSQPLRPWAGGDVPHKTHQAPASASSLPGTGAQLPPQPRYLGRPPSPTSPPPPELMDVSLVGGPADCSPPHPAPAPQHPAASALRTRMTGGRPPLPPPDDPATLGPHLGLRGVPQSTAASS
T6 sequence (Q9HAZ1 whole entry, the tested form may be a part): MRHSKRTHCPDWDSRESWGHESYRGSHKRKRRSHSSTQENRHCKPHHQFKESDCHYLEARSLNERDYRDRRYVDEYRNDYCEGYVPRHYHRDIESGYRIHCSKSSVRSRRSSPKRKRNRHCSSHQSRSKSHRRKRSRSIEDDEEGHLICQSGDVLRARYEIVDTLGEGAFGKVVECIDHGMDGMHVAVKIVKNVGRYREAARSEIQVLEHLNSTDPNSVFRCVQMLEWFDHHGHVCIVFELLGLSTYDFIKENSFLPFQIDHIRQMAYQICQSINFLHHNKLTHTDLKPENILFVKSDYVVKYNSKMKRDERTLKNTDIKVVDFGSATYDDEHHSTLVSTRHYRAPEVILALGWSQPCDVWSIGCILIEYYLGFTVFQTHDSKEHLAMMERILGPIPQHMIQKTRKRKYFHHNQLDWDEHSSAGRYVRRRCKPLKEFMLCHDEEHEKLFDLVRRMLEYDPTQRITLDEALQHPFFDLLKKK
T8 sequence (P49761 whole entry, the tested form may be a part): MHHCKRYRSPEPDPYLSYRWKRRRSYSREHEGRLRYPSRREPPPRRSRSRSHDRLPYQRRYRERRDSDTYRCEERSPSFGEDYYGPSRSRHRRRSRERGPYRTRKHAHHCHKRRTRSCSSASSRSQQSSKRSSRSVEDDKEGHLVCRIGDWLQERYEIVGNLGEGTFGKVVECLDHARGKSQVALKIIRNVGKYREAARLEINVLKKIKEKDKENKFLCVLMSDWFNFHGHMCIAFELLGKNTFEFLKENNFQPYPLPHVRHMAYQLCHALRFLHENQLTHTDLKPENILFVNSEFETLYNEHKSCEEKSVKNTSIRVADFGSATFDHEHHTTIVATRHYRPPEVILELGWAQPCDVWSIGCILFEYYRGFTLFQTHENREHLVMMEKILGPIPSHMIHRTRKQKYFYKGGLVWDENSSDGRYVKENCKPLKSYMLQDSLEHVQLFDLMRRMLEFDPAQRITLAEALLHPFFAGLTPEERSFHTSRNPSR

SMILES	IC50 [1] [nM]	IC50 [2, 9]	IC50 [2, 10] [nM]	Selectivity Class DYRK1A vs. CLK1 [2]	Selectivity Class DYRK1A vs. DYRK1B [2]	IC50 [2, 11] [nM]	IC50 [3] [nM]	IC50 [4] [nM]	IC50 [5, 12] [nM]	IC50 [5, 13] [nM]	IC50 [6] [nM]	IC50 [7] [nM]	IC50 [8] [nM]	IC50 ([5]; read-out: IC50 on CLK1 (most potent CLK1 inhibitors)) [nM]
COC[C@H](NC1=N/C(=C\c2ccc3ncncc3c2)C(=O)N1)c1ccccc1 [Compound 69, (4Z)-2-[[(1R)-2-methoxy-1-phenyl-ethyl]amino]-4-(quinazolin-6-ylmethylene)-1H-imidazol-5-one]	≤ 10	≤ 5 nM	< 5	II (ratio between 2 and 10 fold)	II (ratio between 2 and 10 fold)	≤ 10	≤ 250	≤ 100	10 to 25	10 to 25	≤ 10	≤ 250	–	–
O=C1NC(NC2CCCCCC2)=N/C1=C\c1ccc2ncccc2n1 [Compound 80, (4Z)-2-(cycloheptylamino)-4-(1,5-naphthyridin-2-ylmethylene)-1H-imidazol-5-one]	–	–	10 to 25	III (ratio between 0.5 and 2 fold)	II (ratio between 2 and 10 fold)	–	–	–	–	25 to 50	–	–	≤ 500	–
O=C1NC(NC23CC4CC(CC(F)(C4)C2)C3)=N/C1=C\c1ccc2nccnc2c1 [Compound 20, (4Z)-2-[(3-fluoro-1-adamantyl)amino]-4-(quinoxalin-6-ylmethylene)-1H-imidazol-5-one]	≤ 10	≤ 5 nM	< 5	II (ratio between 2 and 10 fold)	III (ratio between 0.5 and 2 fold)	≤ 10	≤ 250	≤ 100	10 to 25	10 to 25	≤ 10	≤ 250	–	≤ 10
CN1C(=O)/C(=C/c2ccc3cnccc3c2)N=C1NC1CCCCCC1 [Compound 87, (5Z)-2-(Cycloheptylamino)-3-methyl-5-(isoquinolin-6-ylmethylene)imidazol-4-one]	–	–	> 50	IV (ratio between 0.1 and 0.5 fold)	IV (ratio between 0.1 and 0.5 fold)	–	≤ 250	–	–	> 50	–	≤ 250	–	–
COC12CC3CC(CC(NC4=N/C(=C\c5ccc6nccnc6c5)C(=O)N4)(C3)C1)C2 [Compound 19, (4Z)-2-[(3-methoxy-1-adamantyl)amino]-4-(quinoxalin-6-ylmethylene)-1H-imidazol-5-one]	≤ 10	≤ 5 nM	< 5	II (ratio between 2 and 10 fold)	II (ratio between 2 and 10 fold)	≤ 10	≤ 250	≤ 100	10 to 25	10 to 25	≤ 10	–	–	–
O=C1NC(NC23CC4CC(CC2C4)C3)=N/C1=C\c1ccc2ncccc2c1 [Compound 48, (4Z)-2-(3-noradamantylamino)-4-(6-quinolylmethylene)-1H-imidazol-5-one]	–	5 to 10 nM	5 to 10	II (ratio between 2 and 10 fold)	II (ratio between 2 and 10 fold)	≤ 10	≤ 250	–	10 to 25	10 to 25	≤ 10	≤ 250	–	–
O=C1NC(NC23CC4CC(CC(C4)C2)C3)=N/C1=C\c1ccc2cnccc2c1 [Compound 61, (4Z)-2-(1-adamantylamino)-4-(6-isoquinolylmethylene)-1H-imidazol-5-one]	–	–	25 to 50	III (ratio between 0.5 and 2 fold)	III (ratio between 0.5 and 2 fold)	–	–	≤ 100	–	25 to 50	–	≤ 250	–	–
O=C1NC(NC23CC4CC(CC(O)(C4)C2)C3)=N/C1=C\c1ccc2nccnc2c1 [Compound 18, (4Z)-2-[(3-hydroxy-1-adamantyl)amino]-4-(quinoxalin-6-ylmethylene)-1H-imidazol-5-one]	≤ 10	≤ 5 nM	< 5	II (ratio between 2 and 10 fold)	II (ratio between 2 and 10 fold)	≤ 10	–	–	10 to 25	10 to 25	≤ 10	–	–	–
O=C1NC(NC23CC4CC(CC(C4)C2)C3)=N/C1=C\c1ccc2ncccc2c1 [Compound 49, (4Z)-2-(1-adamantylamino)-4-(6-quinolylmethylene)-1H-imidazol-5-one]	–	10 to 25 nM and 5 to 10 nM	10 to 25	II (ratio between 2 and 10 fold)	III (ratio between 0.5 and 2 fold)	≤ 10	–	≤ 100	10 to 25	10 to 25	–	≤ 250	–	–
